Experimental data reported in patent US20030211152A1, “Controlled release formulation for treating COPD” (SmithKline Beecham Corporation, priority 1999, published 2003).
Like-named read-outs stand apart in the source and are kept apart here.

Assays:
[1] = Side effects with increasing oral dose and blood levels; format: in vivo; conditions: as blood levels increase with increased levels of dosing
Source text: While to date no one has been able to identify a compound which is completely without unwanted CNS side effects at all possible dosage levels, at least one compound has been identified that meets the criteria described above, namely cis-4-cyano-4-[3-(cyclopentyloxy)-4-methoxyphenyl]cyclohexane-1-carboxylic acid. […] This is particularly true with COPD. […] The controlled release formulations of this invention allow for administering in a single dosage form several times the quantity that can otherwise be administered of a PDE4 inhibitor and achieve both initial therapeutically effective blood levels and maintain these blood level for an extended period of time. PDE4 inhibitors, particularly PDE4-specific inhibitors are useful in treating other diseases especially in the areas of inflammation, (e.g., asthma, chronic obstructive pulmonary disease, inflammatory bowel disease, rheumatoid arthritis), affects related to tumor necrosis factor and to cognition impairment (e.g., multi-infarct dementia, cognitive dysfunction, or stroke). This invention is useful in treating these diseases as well. These formulations and the method descibed herein can be used for prophylactic treatment as well. Additional other therapeutic or prophylactic agents can be combined with a PDE4 inhibitor in these formulations as well.

PDE 4 = experiment: IC50 ratio: competing with [3H]R-rolipram binding to high affinity form over inhibiting catalytic activity of low affinity form; format: biochemical; conditions: 1 nM [3H]R-rolipram binding; 1 uM [3H]-cAMP as substrate
Source text: This invention covers controlled release formulations which contain a PDE 4 inhibitor, particularly an inhibitor that is specific for PDE 4. A preferred group of inhibitors are those that have an IC50 ratio (high/low binding) of about 0.1 or greater as further described in co-pending U.S. application Ser. No. 08/456,274 and its published counter-part PCT application serial number published Jan. 5, 1995 as WO95/00139; this application is incorporated herein in full by reference as if fully set forth herein. A preferred standard for PDE 4-specific inhibitors which can be used in this invention is one where the compound has an IC50 ratio of about 0.1 or greater; said ratio being the ratio of the IC50 value for competing with the binding of 1 nM of [^3H]R-rolipram to a form of PDE 4 which binds rolipram with a high affinity over the IC50 value for inhibiting the PDE 4 catalytic activity of a form which binds rolipram with a low affinity using 1 uM[^3H]-cAMP as the substrate.

[2] = clinical studies / indications; cited from earlier work

Row | Compound | side effects [1] | therapeutic ratio (IC50 ratio high/low binding) (PDE 4) | side effects [2]
1 | COc1ccc([C@]2(C#N)CC[C@@H](C(=O)O)CC2)cc1OC1CCCC1 [cis-4-cyano-4-[3-(cyclopentyloxy)-4-methoxyphenyl]cyclohexane-1-carboxylic acid] | undesirable side effects such as those attributed to CNS activity begin to be manifested | greater than 0.1 | 
2 | CCCCn1c(=O)c2c(ncn2CC(C)=O)n(CCCC)c1=O [denbufylline] |  |  | pyrosis, nausea and emesis
3 | COc1ccc(C2CNC(=O)C2)cc1OC1CCCC1 (stereo not shown) [rolipram] |  |  | psychotropic activity and produces gastrointestinal effects, e.g., pyrosis, nausea and emesis
